From patent EP0359821A1, “METHOD OF STERILIZING PLANT ANTHERS” (priority 1988, dated 1989)

Key:
[1] = system: Sonnenblume Sorte Peredovik; assay: Field trial of pollen sterilisation, sunflower Peredovik; type: in vivo; conditions: 0,2% aqueous emulsion, 1,2 kg/ke (so in the source)
Description: Pflanzen der Sonnenblume Sorte Peredovik werden in der V. oder VI.
Der Verbrauch an Sterilisationsmittel beträgt 1,2 kg/ke.

in vivo = conditions: rat
[2] = system: Diploider Roggen Sorte Chulpan; assay: Field trial of gametocidal activity, diploid rye Chulpan; type: in vivo; conditions: single compounds, 1% aqueous emulsion, 10 kg/ha
Description: Bei Weizen und Tritikale werden Einzelisolatoren verwendet.
Pflanzen von diploidem Roggen Sorte Chulpan werden in der V. oder VI.
Der Verbrauch an Sterilisationsmitteln beträgt 10 kg/ha.

[3] = system: Hirse Sorte K-9693 Kormovoe 1; assay: Field trial of gametocidal activity, millet K-9693 Kormovoe 1; conditions: 1% aqueous emulsion, 10 kg/ha
Sonnenblume Linie VK 119 = assay: Field trial of pollen sterilisation, sunflower line VK 119; conditions: 0,2% aqueous emulsion, 1,2 kg/ha
[4] = system: Tetraploider Roggen Sorte Jubileinaya; assay: Field trial of gametocidal activity, tetraploid rye Jubileinaya; conditions: 1% aqueous emulsion, 10 kg/ha
[5] = Toxicity in animal test (result in words)

Compound | Pollensterilität in % [1] [%] | Ansetzen von Achänen bei freier Bestäubung in % ([1]; V. or VI. period) | Ansetzen von Achänen im Isolator bei der Bestäubung mit dem Pollengemisch in % ([1]; V. or VI. period) | LD50 (in vivo) [mg/kg] | Anzahl von Körnern der Ähre bei freier Bestäubung ([2]; Chulpan, V. or VI. period) | Anzahl von Körnern der Ähre im Isolator ([2]; Chulpan, V. or VI. period) | pest or weed control at 10000 g/ha ([2]; read-out: Prozentsatz der Sterilität, Chulpan, V. or VI. period) [%] | response vs control in vivo at 10000 g/ha ([2]; read-out: Prozentsatz des Ansetzens bei freier Bestäubung, Chulpan, control = 100) [%] | Anzahl von Körnern der Rispe bei freier Bestäubung ([3]; V. or VI. period) | Anzahl von Körnern der Rispe im Isolator ([3]; V. or VI. period) | Prozentsatz der Sterilität ([3]; V. or VI. period) [%] | Prozentsatz des Ansetzens bei freier Bestäubung ([3]; control = 100) | Ansetzen von Achänen bei freier Bestäubung in % (Sonnenblume Linie VK 119) | Ansetzen von Achänen im Isolator bei der Bestäubung mit dem Pollengemisch in % (Sonnenblume Linie VK 119) | Pollensterilität in % (Sonnenblume Linie VK 119) [%] | Anzahl von Körnern der Ähre bei freier Bestäubung ([4]; V. or VI. period) | Anzahl von Körnern der Ähre im Isolator ([4]; V. or VI. period) | Prozentsatz des Ansetzens bei freier Bestäubung ([4]; control = 100) | Toxizität im Tierversuch [5]
CCCCOC(=S)S [Beispiel 44, Kaliumbutylxanthogenat] | 100 | 85,3% | 0,0% | 760 | 48,0 | 2,6 | 96.2 | 84.7 | 134,6 | 0,0 | 100 | 91,2% | 81,5% | 0,0% | 100 | – | – | – | –
OCC(CO)(CO)CO [Beispiel 58, Pentaerythrit] | – | – | – | – | – | – | – | – | – | – | – | – | – | – | – | 45,6 | 0,4 | 94,4% | praktisch nichttoxische
OCC(CO)(CO)CBr [Brommethyl-tri(oxymethyl)-methan] | – | – | – | – | – | – | – | – | – | – | – | – | – | – | – | – | – | – | praktisch nichttoxische
